The results in this text go back to patent publication US12280125B2 (Imam Abdulrahman Bin Faisal University, priority 2022, dated 2025).

In assay [1] the test system is diabetic animals. As to the kind of experiment: Long-term effect on fasting blood glucose over 28 days. The assay is classed as in vivo, rats. As to conditions: standard insulin treated group.
The test system of assay [2] is diabetic animals. Nature of the assay: Non fasting blood glucose levels during 28 days. The assay is classed as in vivo, rats. To be noted: standard insulin group. As for the experimental part:
Non fasting blood glucose levels were measured for all the groups during the 28 days.

A short description of assay [3]: Body weight during 28 days. Set-up: species or system rats. To be noted: rat, in vivo.
The subject of another assay is pancreatic tissue. As to the kind of experiment: Histopathological evaluation of pancreas (H&E). The assay is classed as in vivo. To be noted: diabetic rats, after treatment. From the text: After treatment, the organs (liver and pancreas) of the rats were collected for histopathological evaluation. […] To collect the tissue at the end of the treatment time, animals were sacrificed under anesthetic conditions. These tissues were washed with phosphate-buffered saline (PBS) and fixed in 10% formalin (Tissue processing station-Tissue Teck VIP 5). The collected samples were properly stored under normal room temperature and were cut/sliced using a semiautomated microtome (Accu-Cut SRM system) into a few small pieces of 3-5 mm from each sample tissue and were separately embedded in paraffin blocks. These sliced tissues were mounted on the glass slides and were properly fixed on the glass slide with a hot plate. After this xylene was used to remove the paraffin from the tissues and was rehydrated by using a series of graded ethanol dilutions, 100%, 90%, and 70%. The rehydrated tissue sections were stained with hematoxylin and eosin (H&E) and were examined using light microscopy to determine the architecture and proportions of islet and acinar cells in the pancreas and hepatocytes in the liver. […] In the control group, acinar and islet cells are seen in the pancreas in normal proportions. The acinar cells are arranged in lobules and are stained darkly with prominent nuclei. The islet cells are embedded within the acinar cells and surrounded by a fine capsule (FIG. 19A). […]

For another assay, the system named is liver tissue. As to the kind of experiment: Histopathological evaluation of liver (H&E). It is filed as in vivo. As to conditions: diabetic rats, after treatment. From the text: After treatment, the organs (liver and pancreas) of the rats were collected for histopathological evaluation. […] To collect the tissue at the end of the treatment time, animals were sacrificed under anesthetic conditions. These tissues were washed with phosphate-buffered saline (PBS) and fixed in 10% formalin (Tissue processing station-Tissue Teck VIP 5). The collected samples were properly stored under normal room temperature and were cut/sliced using a semiautomated microtome (Accu-Cut SRM system) into a few small pieces of 3-5 mm from each sample tissue and were separately embedded in paraffin blocks. These sliced tissues were mounted on the glass slides and were properly fixed on the glass slide with a hot plate. After this xylene was used to remove the paraffin from the tissues and was rehydrated by using a series of graded ethanol dilutions, 100%, 90%, and 70%. The rehydrated tissue sections were stained with hematoxylin and eosin (H&E) and were examined using light microscopy to determine the architecture and proportions of islet and acinar cells in the pancreas and hepatocytes in the liver. […] These cords of hepatocytes are separated by narrow intervening sinusoids lined by endothelial cells and Kupffer cells. No inflammatory cells are seen (FIG. 20A).

As to “standard insulin: standard insulin dose used as the comparison treatment group in diabetic rats”, the “Fasting blood glucose level, initial” value in the assay on diabetic animals [1] worked out at 433 mg/dL. In addition, the “Fasting blood glucose level, reduced” value with diabetic animals [1] (p=<0.001) is 371 mg/dL. Also, in the assay with diabetic animals [2], the “Non fasting blood glucose level at day 1” value was 487 mg/dL and the “Non fasting blood glucose level at day 28” value stood at 371 mg/dL. Moreover, in assay [3], the “Body weight at day 28 compared to the weight at day 21” value is “significant (p=<0.001) improvement” and the “Improvement in body weight compared to diabetic control group” value was “significant (p=<0.0001)”. Also, the Pancreatic histology result with pancreatic tissue is listed as “the pancreatic histology is similar to that of the diabetic control”. The Liver histology result with liver tissue is “the liver histology shows mostly a normal lobular architecture with normal cords of hepatocytes with intervening patent sinusoids with focal congestion with only occasional hepatocytes showing degenerative changes and no inflammation is seen”.
